Laboratory results: US11028086B2, “Pyrido-imidazo rifamycins” (Biofer S.p.A., priority 2017, dated 2021)
Values after ≈ are worked out from the molar mass of the structure shown. Values joined by “and” are separate entries in the source; they are usually repeats but may differ in a detail not shown here. Equal entries are not always repeated. Where two headings read alike, the source gives them in different places.

Legend:
Escherichia Coli NK12 = experiment: MIC by serial dilution, Strain D; assay type: cell-based; details: COLINK12, range between last concentration with growth and first without growth
Description: (§1) The MICs were calculated using the serial dilution method, and are expressed as the range between the last concentration at which the bacterial strain grows and the first concentration at which the strain tested no longer grows.

[1] = cited from earlier work
[2] = Pharmacokinetics after oral administration in male rats; details: Sprague-Dawley, rat, in vivo
Description: (§2) To 0.250 mL of this solution, 4.750 mL of saline are added, obtaining a final 0.2 mg/mL (5% DMSO, 95% saline) solution. A volume of 5 mL/Kg is administered to 3 rats in each group to have a 1 mg/Kg dose for each of the two products. • Oral Administration of RFX and Derivative 3: the two products were dissolved in DMSO obtaining two solutions having a 60 mg/mL concentration (stock solutions). To 0.5 mL of each solution, 2.0 mL of PEG 400 and 7.5 mL of saline solution were added under stirring, obtaining a stable suspension with a nominal concentration of 3 mg/mL. A volume equal to a 30 mg/kg dose is administered to the animal.
(§3) Male Sprague Dawley rats, weighing between 250 and 300 g, were used in the study. The animals were housed and observed before the experiment according to an approved GMP protocol according to Italian legislation.
(§4) The rats were divided into three groups: • Group 1: i.v. treatment • Group 2: oral treatment for blood sampling • Group 3: oral treatment for urine and stool collection
(§5) Plasma: the calibration curve and the QC samples were prepared in untreated rat plasma, adding 5 μL of each stock solution to 45 μL of untreated rat plasma. The 50 μL of plasma obtained were diluted up to 100 μL with cold acetonitrile containing the Internal Standard (I.S.) at the final concentration of 50 ng/mL, and centrifuged for 5 min. at 9000 rpm at 5° C. The supernatant was transferred to a 96-well plate for analysis. The samples of Groups 1 and 2 were similarly prepared using 50 μL of plasma from the treated rats.
(§6) A non-compartmental analysis was applied, and the following pharmacokinetic parameters were considered for each subject:
(§7) The concentration data were extrapolated using the Analyst™ 6.1 software (Applied Biosystems); the AUCs were calculated using a linear-trapezoidal method, and a weight uniformity was performed as the first approach. The concentration/time graphs were performed after logarithmic transformation of the results using PK Solver 2.0 software, Excel 2007 Microsoft add in.

[3] = test system: Bacillus Subtilis ATCC 6633; experiment: MIC by serial dilution, Strain B; assay type: cell-based; details: ATCC6633, range between last concentration with growth and first without growth
Description: as §1

[4] = test system: Staphylococcus aureus IM149; experiment: MIC by serial dilution, Strain A; assay type: cell-based; details: range between last concentration with growth and first without growth
Description: as §1

Enterobacter = experiment: qPCR count of intestinal bacteria in rat stool after 5 days oral treatment; assay type: in vivo, Sprague Dawley rats; details: for cell count average value Enterobacter: group average of cell counts; for Ct Values Enterobacter / Cell Count Enterobacter: individual rats, listed as RFX; for Ct Values Enterobacter: average of three qPCR analyses; for Cell Count Enterobacter: derived from Ct values
Description: (§8) The stools were collected at T0 and the day after the last treatment.
(§9) The two products were first dissolved in DMSO at the concentration of 100 mg/mL (stock solution), then to 0.5 mL of each solution 2.0 mL of PEG 400 and 7.5 mL of saline solution were added, under stirring. A stable suspension at the nominal concentration of 5 mg/mL is obtained. A volume of 10 mL/kg, equal to 50 mg/kg, is administered.
(§10) The detection method is based on isolation of the total genomic DNA from each stool sample, using a specific commercial kit. After the quali-quantitative evaluation of the DNA, the same DNA samples were stored at −20° C. Quantitative analyzes were performed using qPCR Real Time with the use of a DNA primer couples specific for Bifidobacterium, Enterococcus, Enterobacter, and Lactobacillus species.
(§11) DNA isolation was performed using the PowerFecal® DNA Isolation Kit (MO BIO Laboratories) commercial kit on a sample of 250 mg stool, each time. After isolation, the DNA samples were evaluated by spectrophotometric analysis. Each DNA sample was quantified in the 60-100 ng/μL range (high in proteins and sugars), as typical for stool-derived DNA.
(§12) Each sample was evaluated three times. For each DNA sample and for each specific DNA primer couple, the analysis provided a CT value that resulted to be correlated to the amount of DNA specific to the bacterial species, therefore closely correlated to the number of bacterial cells of that species present in the stool sample.
(§13) For relative quantification, a “generalized linear mixed model (GLMM) under Poisson-lognormal error” was applied. MCMC.qPCR R package was used to convert CT values into bacterial cell numbers. For the conversion, the formula: Number of cells=E(Ct1−Ct) was used, where E represents the efficiency of amplification, which in the present case assumes the value of 2. Ct1 represents the number of qPCR cycles needed to detect a single target molecule (in this study Ct1 is supposed to have the value of 39).
(§14) The Markov Chain Monte Carlo algorithm (MCMC) was used to estimate the effect of time on the development levels of each microbial genus. The GLMM method was used to verify if the levels of each bacterial genus at T0 and T5 differ. Furthermore, a statistical analysis to evaluate the significance of the differences between the T0 and T5 values was performed.

Enterococcus = experiment: as above; assay type: in vivo, Sprague Dawley rats; details: for cell count average value Enterococcus: group average of cell counts; for Ct Values Eterococcus / Cell Count Eterococcus: individual rats, listed as RFX; for Ct Values Eterococcus: average of three qPCR analyses; for Cell Count Eterococcus: derived from Ct values
Description: as §8, §9, §10, §11, §12, §13, §14

Lactobacillus = experiment: as above; assay type: in vivo, Sprague Dawley rats; details: for cell count average value Lactobacillus: group average of cell counts; for Ct Values Lactobacillus / Cell Count Lactobacillus: individual rats, listed as RFX; for Ct Values Lactobacillus: average of three qPCR analyses; for Cell Count Lactobacillus: derived from Ct values
Description: as §8, §9, §10, §11, §12, §13, §14

Bifidobacterium = experiment: as above; assay type: in vivo, Sprague Dawley rats; details: for cell count average value Bifidobacterium: group average of cell counts; for Ct Values Bifidobacterium / Cell Count Bifidobacterium: individual rats, listed as RFX; for Ct Values Bifidobacterium: average of three qPCR analyses; for Cell Count Bifidobacterium: derived from Ct values
Description: as §8, §9, §10, §11, §12, §13, §14

[5] = test system: Escherichia Coli ATCC 25922; experiment: MIC by serial dilution, Strain C; assay type: cell-based; details: ATCC25922, range between last concentration with growth and first without growth
Description: as §1

[6] = Pharmacokinetics after intravenous administration in male rats; details: Sprague-Dawley, rat, in vivo, 1 mg/kg
Description: as §2, §3, §4, §5, §6, §7

[7] = T5 (day after 5 days oral 50 mg/kg)
[8] = T5 (day after 5 days oral 50 mg/kg), 50 mg/kg
[9] = oral treatment 5 days, 50 mg/kg, T5 vs T0

CO[C@H]1/C=C/O[C@@]2(C)Oc3c(C)c(O)c4c(O)c(c5c(nc6cc(C)ccn65)c4c3C2=O)NC(=O)/C(C)=C\C=C\[C@H](C)[C@H](O)[C@@H](C)[C@@H](O)[C@@H](C)[C@H](OC(C)=O)[C@@H]1C [Rifaximin, reference compound]
MIC (Escherichia Coli NK12): 4 to 8 µg/mL (≈ 5.09 to 10.2 µM)
solubility ([1]; in the presence of 20 mM bile acids): 72.6%
solubility ([1]; in water): 0.6%
bioavailability [2]: 0.4%
AUC(0-inf) ([2]; po, 30 mg/kg): 222 ng·h/mL
AUC(0-t) ([2]; po, 30 mg/kg): 197 ng·h/mL
Cmax ([2]; po, 30 mg/kg): 57.1 ng/mL
MRT inf ([2]; po, 30 mg/kg): 9.22 h
Tmax ([2]; po, 30 mg/kg): 0.5 h
half-life ([2]; po, 30 mg/kg): 9.63 h
MIC [3]: 0.125 to 0.25 µg/mL (≈ 0.159 to 0.318 µM)
MIC [4]: 0.25 to 0.5 µg/mL (≈ 0.318 to 0.636 µM)
cell count average value Enterobacter (Enterobacter; T0 (before treatment)): 2.69 × 10^6
Ct Values Enterobacter (Enterobacter; T0 (before treatment)): 17.704 and 23.688 and 16.284 and 17.749 and 17.616 and 18.371
Cell Count Enterobacter (Enterobacter; T0 (before treatment)): 2.57E+06 cells per mg of stool and 4.07E+04 cells per mg of stool and 6.89E+06 cells per mg of stool and 2.50E+06 cells per mg of stool and 2.74E+06 cells per mg of stool and 1.62E+06 cells per mg of stool
cell count average value Enterobacter (Enterobacter; [7]): 5.98 × 10^5
Ct Values Enterobacter (Enterobacter; [8]): 20.143 and 25.467 and 17.828 and 21.542 and 23.096 and 20.066
Cell Count Enterobacter (Enterobacter; [8]): 4.75E+05 cells per mg of stool and 1.19E+04 cells per mg of stool and 2.36E+06 cells per mg of stool and 1.80E+05 cells per mg of stool and 6.13E+04 cells per mg of stool and 5.01E+05 cells per mg of stool
drop in cell count for the Enterobacter genus (Enterobacter; [9]): about 10 times
cell count average value Enterococcus (Enterococcus; T0 (before treatment)): 9.2 × 10^6
Ct Values Eterococcus (Enterococcus; T0 (before treatment)): 23.236 and 22.741 and 14.976 and 16.124 and 18.925 and 14.203
Cell Count Eterococcus (Enterococcus; T0 (before treatment)): 5.56E+04 cells per mg of stool and 7.84E+04 cells per mg of stool and 1.71E+07 cells per mg of stool and 7.70E+06 cells per mg of stool and 1.10E+06 cells per mg of stool and 2.91E+07 cells per mg of stool
cell count average value Enterococcus (Enterococcus; [7]): 28 × 10^4
Ct Values Eterococcus (Enterococcus; [8]): 23.676 and 24.09 and 24.608 and 23.121 and 25.293 and 26.739
Cell Count Eterococcus (Enterococcus; [8]): 4.10E+04 cells per mg of stool and 3.06E+04 cells per mg of stool and .15E+04 cells per mg of stool and 6.03E+04 cells per mg of stool and 1.34E+04 cells per mg of stool and 4.91E+03 cells per mg of stool
drop in cell count for the Enterococcus genus (Enterococcus; [9]): about 100 times
cell count average value Lactobacillus (Lactobacillus; T0 (before treatment)): 1.3 × 10^6
Ct Values Lactobacillus (Lactobacillus; T0 (before treatment)): 20.565 and 20.928 and 19.111 and 20.465 and 17.200 and 17.852
Cell Count Lactobacillus (Lactobacillus; T0 (before treatment)): 3.55E+05 cells per mg of stool and 2.75E+05 cells per mg of stool and 9.71E+05 cells per mg of stool and 3.80E+05 cells per mg of stool and 3.65E+06 cells per mg of stool and 2.32E+06 cells per mg of stool
cell count average value Lactobacillus (Lactobacillus; [7]): 6.6 × 10^5
Ct Values Lactobacillus (Lactobacillus; [8]): 20.364 and 19.891 and 18.746 and 19.308 and 19.872 and 20.306
Cell Count Lactobacillus (Lactobacillus; [8]): 4.07E+05 cells per mg of stool and 5.65E+05 cells per mg of stool and 1.25E+06 cells per mg of stool and 8.47E+05 cells per mg of stool and 5.73E+05 cells per mg of stool and 4.24E+05 cells per mg of stool
change in cell count for the Lactobacillus genus (Lactobacillus; [9]): no significant differences
cell count average value Bifidobacterium (Bifidobacterium; T0 (before treatment)): 6.87 × 10^6
Ct Values Bifidobacterium (Bifidobacterium; T0 (before treatment)): 15.880 and 14.080 and 22.166 and 21.412 and 24.420 and 23.158
Cell Count Bifidobacterium (Bifidobacterium; T0 (before treatment)): 9.11E+06 cells per mg of stool and 3.17E+07 cells per mg of stool and 1.17E+05 cells per mg of stool and 1.97E+05 cells per mg of stool and 2.45E+04 cells per mg of stool and 5.87E+04 cells per mg of stool
cell count average value Bifidobacterium (Bifidobacterium; [7]): 8.26 × 10^6
Ct Values Bifidobacterium (Bifidobacterium; [8]): 13.747 and 16.114 and 24.545 and 18.232 and 27.172 and 26.104
Cell Count Bifidobacterium (Bifidobacterium; [8]): 4.00E+07 cells per mg of stool and 7.75E+06 cells per mg of stool and 2.25E+04 cells per mg of stool and 1.79E+06 cells per mg of stool and 3.64E+03 cells per mg of stool and 7.62E+03 cells per mg of stool
decrease in the bacterial count for the Bifidobacterium genus (Bifidobacterium; [9]): no significant differences
MIC [5]: 2 to 4 µg/mL (≈ 2.54 to 5.09 µM)
AUC(0-inf) [6]: 1990 ng·h/mL
AUC(0-t) [6]: 1990 ng·h/mL
C0 [6]: 3760 ng/mL
Cl_obs [6]: 9.8 mL/min/kg
Cmax [6]: 2880 ng/mL
MRT inf [6]: 1.18 h
Tmax [6]: 5 min
Vss_obs [6]: 0.757 L/kg
half-life [6]: 2.45 h
